# According to patent US20240050440A1, “THERAPEUTIC TARGETS AND AGENTS FOR THE TREATMENT OF TRIOSEPHOSPHATE ISOMERASE (TPI) DEFICIENCY” (University of Pittsburgh- Of The Commonwealth System of …, priority 2020, published 2024):
# Entries after “also recorded” stand apart in the source; their conditions may differ.
# System: TPI^E105D-GFP fusion protein
# Experiment: HEK293 TPI^E105D-GFP high content assay (GFP intensity per cell)
# Format: cell-based, human
# Conditions: prescreen of putative protein stabilizing compounds, 48 hours
# Method: HEK293 cells expressing a mutant (E105D) TPI-GFP fusion protein were created using the Flp-In System (Invitrogen, Catalog #K6010-01 and K6010-02) following the manufacturer's protocol. Briefly, a host cell line expressing the transfected Flp-In target site vector, pFRT/lacZeo, was obtained following zeocin resistance selection. TPI^E105D-GFP fusion construct was cloned into the pcDNA 5/FRT expression vector. Co-transfection of 0.1 μg of the pcDNA 5/FRT construct (390 ng/μL) and 0.9 μg of the Flp recombinase expression vector (pOG44, 127 ng/μL) into the Flp-In host cell line was performed with 3.75 μL Lipofectamine 2000 reagent (Invitrogen). A hygromycin dose response was performed to determine the minimum concentration of hygromycin B required to kill untransfected host cells. […] Expression of the TPI^E105D-GFP fusion protein was verified via Western blot. The cells were cultured using standard methods (37° C., 5% CO2) in normal media (DMEM with 10% serum, 100 U penicillin/100 μg streptomycin/ml (Lonza)). To document subcellular localization of mutant GFP-tagged TPI, nuclei were stained with Hoechst 33342 and imaged on an ImageXpress Ultra confocal high content reader in the UV and GFP channel, respectively. A z-series of images (60× objective, 90 planes, 0.3 μm z-steps) was acquired in both channels, and the color combined stack subjected to 3D reconstruction in MetaXpress. A single slice of the reconstructed image was chosen to illustrate the phenotype of mutant TPI-GFP expression.
# HEK293 TPI^E105D-GFP cells were plated (50,000 cells/well in collagen-coated 96-well thin-bottom microplates and allowed to attach overhight. Cells were treated with four point, two-fold gradients of 5× treatment solutions of test agents (6 replicates per condition). The final concentration of vehicle was 0.2%. After 48 hours in culture, cells were preincubated with propidium iodide (PI) for 30 minutes and imaged live in the GFP and Texas Red channels on an ImageXpress Ultra high content reader (Molecular Devices) using a 20× objective Images were analyzed with the multiwavelength cell scoring application using GFP to define and enumerate cells. The integrated GFP intensity per cell was used to quantify mutant TPI expression; the number of cells was used as a proxy for growth inhibition and/or cell loss; and the percentage of cells that exceeded a threshold for PI based on vehicle-treated controls was used to measure acute toxicity (necrosis).
# Assay ready daughter plates of the NIH Clinical Collection containing 2 μL of a 1 mM DMSO stock were reconstituted in DMEM (60 μL) to yield a 30 μM intermediate treatment concentration. 60 μl of DMSO (3%) was added to columns 1 and 24, and 60 μL of 600 nM luminespib was added to columns 2 and 23 to serve as negative and positive controls, respectively. Aliquots (15 μl) were transferred directly to cells in 384 well plates using an Agilent Bravo liquid handling robot (final concentration in assay, 10 μM). For the 1 μM condition, an aliquot of the 30 μM treatment solution was diluted 1:10 and controls added as above. Aliquots (15 μl) were transferred to cells to yield a […] final concentration. Plates were centrifuged for 30 seconds at 200×g and incubated at 37° C. After 24 hours, plates were imaged live in the GFP channel and returned to the incubator; after 48 hours cells were stained with PI, imaged live in the GFP and PI channels, and analyzed as described above. The LOPAC library was screened using the same procedure except that only the 10 μM, 48 hour condition was used.
# A pilot library screen was performed using the NIH Clinical Collection in the HEK TPI^E105D-GFP cell line. The NIH Clinical Collection maintained at the UPDDI contains 446 FDA approved drugs and small molecules that have a history of use in human clinical trials. The collections were assembled through the Molecular Libraries and Imaging Initiative as part of its mission to enable the use of compound screens in biomedical research. […]
structure (smiles),measurement,setting,value
CCNC(=O)c1noc(-c2cc(C(C)C)c(O)cc2O)c1-c1ccc(CN2CCOCC2)cc1 [luminespib],TPI^E105D-GFP fluorescence (in words),,significant increase; also recorded: highest fold increase in GFP; also recorded: strong inducer
same,TPI^E105D-GFP fluorescence (in words),listed as Luminespib,dose-dependent increases
